Experimental data reported in patent publication US20260098045A1, “CRYSTALLINE FORM OF (3S,7S,10R,13R)-13-BENZYL-20-FLUORO-7-ISOBUTYL-N-(2-(3-METHOXY-1,2,4-OXADIAZOL-5-YL)ETHYL)-6,9-DIMETHYL-1,5,8,11-TETRAOXO-10-(2,2,2-TRIFLUOROETHYL)-1,2,3,4,5,6,7,8,9,10,11,12,13,14-TETRADECAHYDRO-[1]OXA[4,7,10,14]TETRAAZACYCLOHEPTADECINO[16,17-F]QUINOLINE-3-CARBOXAMIDE” (Idorsia Pharmaceuticals Ltd, priority 2022, published 2026).

Assay: Gravimetric vapour sorption (GVS) analysis
Format: physicochemical
Details: sample of Example 6
Method: Measurements are performed on a multi-sample instrument SPS-100n (Projekt Messtechnik, Ulm, Germany), which is operated in stepping mode at 25° C. A sample of approximately 20 mg is equilibrated at 40% RH before starting a pre-defined humidity program of 40-0-95-0-95-40% RH with steps of 5% ARH and a maximum equilibration time of 24 h per step. The hygroscopic classification is done according to the European Pharmacopeia Technical Guide (1999, page 86), e.g., non-hygroscopic: increase in mass less than 0.2% mass/mass; slightly hygroscopic: increase in mass is less than 2% and equal to or greater than 0.2% mass/mass; hygroscopic: increase in mass is less than 15% and equal to or greater than 2% mass/mass. The mass change between 40% relative humidity and 80% relative humidity in the first adsorption scan is evaluated for this classification.

COc1noc(CCNC(=O)[C@@H]2CC(=O)N(C)[C@@H](CC(C)C)C(=O)N(C)[C@H](CC(F)(F)F)C(=O)N[C@H](Cc3ccccc3)COc3ccc4ncc(F)cc4c3C(=O)N2)n1 [form 1 of the COMPOUND, (3S,7S,10R,13R)-13-benzyl-20-fluoro-7-isobutyl-N-(2-(3-methoxy-1,2,4-oxadiazol-5-yl)ethyl)-6,9-dimethyl-1,5,8,11-tetraoxo-10-(2,2,2-trifluoroethyl)-1,2,3,4,5,6,7,8,9,10,11,12,13,14-tetradecahydro-[1]oxa[4,7,10,14]tetraazacycloheptadecino[16,17-f]quinoline-3-carboxamide]
GVS change of the water content (between 0% and 95% RH, 25° C., almost linear, small hysteresis between ca. 50% and 85% RH): 2%
GVS maximum water content (corresponds to approximately 1 equivalent of water): 2%
